Source: patent WO2016116777A1, “Compositions and methods for treatment of chronic lymphocytic leukemia and small lymphocytic leukemia using a btk inhibitor” (dated 2016)
“Also recorded” adds a separate entry of the source.

Columns and labels:
[1] = test system: human platelet-mediated thrombosis; assay: In vivo human platelet thrombus formation in VWF HA1 mutant mice (laser injury)
B cell receptor = assay: In vitro potency in whole blood, inhibition of signals through the B cell receptor (CD69); type: cell-based; details: whole blood from four healthy donors, 2 hours incubation, anti-human IgD 18 hours, read-out: EC50, CD69 on gated CD19+ B cells
[2] = molecular target: epidermal growth factor receptor (EGFR) (Homo sapiens, UniProt P00533); details: in vitro; cited from earlier work
epidermal growth factor receptor (EGFR), sequence (P00533 25-1210): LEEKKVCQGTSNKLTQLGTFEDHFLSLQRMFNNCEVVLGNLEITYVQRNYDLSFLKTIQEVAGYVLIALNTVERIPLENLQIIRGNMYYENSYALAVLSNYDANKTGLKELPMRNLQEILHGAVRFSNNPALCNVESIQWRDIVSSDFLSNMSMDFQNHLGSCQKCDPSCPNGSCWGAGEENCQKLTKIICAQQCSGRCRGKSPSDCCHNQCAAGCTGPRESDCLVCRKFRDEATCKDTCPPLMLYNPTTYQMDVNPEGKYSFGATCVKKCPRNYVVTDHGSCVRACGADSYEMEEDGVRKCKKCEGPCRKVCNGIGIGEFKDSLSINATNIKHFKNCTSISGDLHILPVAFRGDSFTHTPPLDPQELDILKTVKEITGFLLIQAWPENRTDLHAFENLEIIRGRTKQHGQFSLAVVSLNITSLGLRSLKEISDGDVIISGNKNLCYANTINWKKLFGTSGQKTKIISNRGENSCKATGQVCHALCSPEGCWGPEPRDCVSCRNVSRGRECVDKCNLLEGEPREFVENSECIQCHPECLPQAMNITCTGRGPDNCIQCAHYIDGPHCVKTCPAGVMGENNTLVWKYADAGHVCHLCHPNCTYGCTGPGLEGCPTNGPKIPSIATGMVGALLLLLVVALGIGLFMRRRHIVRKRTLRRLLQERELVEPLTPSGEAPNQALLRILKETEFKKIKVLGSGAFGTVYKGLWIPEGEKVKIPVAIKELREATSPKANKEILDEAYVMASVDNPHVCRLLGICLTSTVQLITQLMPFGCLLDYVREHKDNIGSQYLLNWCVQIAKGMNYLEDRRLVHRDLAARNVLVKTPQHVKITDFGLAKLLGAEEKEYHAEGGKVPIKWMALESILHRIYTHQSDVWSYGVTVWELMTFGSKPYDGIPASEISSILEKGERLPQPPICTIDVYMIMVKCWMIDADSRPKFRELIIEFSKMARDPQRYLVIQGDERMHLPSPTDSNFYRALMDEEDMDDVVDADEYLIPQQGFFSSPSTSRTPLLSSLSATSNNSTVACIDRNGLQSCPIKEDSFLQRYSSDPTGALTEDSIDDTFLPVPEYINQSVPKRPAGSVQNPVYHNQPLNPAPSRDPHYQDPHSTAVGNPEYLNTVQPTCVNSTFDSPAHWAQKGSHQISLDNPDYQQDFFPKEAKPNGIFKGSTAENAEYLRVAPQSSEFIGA

[3] = test system: platelet collagen receptor glycoprotein VI (GPVI); assay: GPVI platelet aggregation; type: cell-based, human
CD8+ T cell = assay: Effect on CD8+ T cell viability
[4] = test system: cytochrome P450 (CYP) enzymes 3A4/5 and 2D6; details: cited from earlier work
Th17 cells = assay: Effect on Th17 cells
regulatory T cell (Treg) = assay: Effect on Treg development
[5] = molecular target: T1, interleukin-2 inducible tyrosine kinase (ITK) (Homo sapiens, UniProt Q08881); details: cited from earlier work
T1 sequence (Q08881 1-620): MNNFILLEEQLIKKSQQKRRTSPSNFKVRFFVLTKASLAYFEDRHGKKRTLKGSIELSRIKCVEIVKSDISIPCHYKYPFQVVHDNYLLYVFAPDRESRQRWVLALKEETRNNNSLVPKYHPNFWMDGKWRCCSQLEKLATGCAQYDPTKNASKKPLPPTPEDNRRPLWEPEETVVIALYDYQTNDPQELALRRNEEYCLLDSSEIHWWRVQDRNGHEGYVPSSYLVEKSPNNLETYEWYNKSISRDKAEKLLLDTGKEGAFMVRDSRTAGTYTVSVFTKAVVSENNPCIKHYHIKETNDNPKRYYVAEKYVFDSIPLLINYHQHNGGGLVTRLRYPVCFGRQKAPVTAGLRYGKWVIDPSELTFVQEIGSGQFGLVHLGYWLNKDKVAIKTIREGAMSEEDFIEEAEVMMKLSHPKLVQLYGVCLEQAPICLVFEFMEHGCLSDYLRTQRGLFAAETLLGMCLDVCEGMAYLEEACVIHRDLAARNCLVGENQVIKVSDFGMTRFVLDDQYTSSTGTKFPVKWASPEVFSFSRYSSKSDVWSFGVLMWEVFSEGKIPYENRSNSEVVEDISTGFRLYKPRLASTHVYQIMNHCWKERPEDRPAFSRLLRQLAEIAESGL

[6] = test system: NK cells (CD56+/CD107a+) with MEC-1 cells; assay: NK cell degranulation/ADCC whole blood assay with obinutuzumab-opsonised MEC-1 cells; type: cell-based, human; details: 0.1, 1 and 10 μM, MEC-1 opsonised with obinutuzumab 1 μg/mL, 4 hours
NK cells = details: cited from earlier work
CLL = details: cited from earlier work
[7] = Phase 1, previously treated CLL, monotherapy
[8] = Phase 1 portion, relapsed/refractory CLL, n=13

Molecule: C=CC(=O)Nc1cccc(Nc2nc(Nc3ccc(OCCOC)cc3)ncc2F)c1 [CC-292]
- effect on human platelet-mediated thrombus formation [1]: interfere with thrombus formation; also recorded: effect similar to ibrutinib

Molecule: C=CC(=O)N1CCC[C@@H](n2nc(-c3ccc(Oc4ccccc4)cc3)c3c(N)ncnc32)C1 [ibrutinib]
- EC50 (B cell receptor): 6.1 nM
- EGFR inhibition [2]: inhibits epidermal growth factor receptor (EGFR)
- GPVI platelet aggregation [3]: significantly inhibits GPVI platelet aggregation
- IC50 ([3]; Homo sapiens, Platelet): 130 nM
- effect on CD8+ T cell viability (CD8+ T cell): strongly affects CD8 T cell viability at higher doses; also recorded: strong, negative effect
- CYP substrate [4]: substrate for both cytochrome P450 (CYP) enzymes 3A4/5 and 2D6
- effect on Th17 cells (Th17 cells): strongly inhibits Thl7 cells; also recorded: profound inhibition
- effect on Treg development (regulatory T cell (Treg)): strongly increases Treg development; also recorded: increase in Treg development
- ITK binding [5]: irreversibly binds ITK
- percentage of CD56+/CD107a+ NK cells / antagonism [6]: strong reduction
- effect on rituximab ADCC mediated by NK cells (NK cells): antagonizes rituximab antibody-dependent cell mediated cytotoxicity (ADCC); also recorded: undesirably antagonizes rituximab ADCC effects

Molecule: obinutuzumab: humanized monoclonal antibody directed against CD20
- MRD-negative complete response, number (CLL; [7]): 1
- response rate (CLL; [7]): 62%
- patients with Grade 3 IRRs (CLL; [8]): 15%
- patients with Grade 4 IRRs (CLL; [8]): no Grade 4
- patients with IRRs, all grade (CLL; [8]): 100%
- patients developing IRR (CLL; Phase 2 portion, relapsed/refractory CLL): 95%
- Grade 3 reactions among those (CLL; Phase 2 portion): 25%
- cases developing symptoms of hypotension (CLL; Phase 2 portion): 60%
